Results from US20240182456A1, “2-((4-((S)-2-(4-CHLORO-2-FLUOROPHENYL)-2-METHYLBENZO[D][1,3]DIOXOL-4-YL)PIPERIDIN-1-YL)METHYL)-1-(((S)-OXETAN-2-YL)METHYL)-1H-IMIDAZOLE DERIVATIVES AS ACTIVATORS OF THE GLP1 RECEPTOR FOR THE TREATMENT OF OBESITY” (Novartis AG, priority 2021, published 2024).

Target: human GLP1R (Homo sapiens, UniProt P43220)
Experiment: Human GLP1R DERET internalization assay
Type: cell-based
Settings: HEK293-SNAP-hGLP1R-GloSensor cells; for EC50: mean n=2; for Emax: relative to GLP1(7-36)
Outline: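 HEK293 cells stably expressing SNAP-tagged hGLP1R, labelled with SNAP-Lumi-Tb, then exposed at 37 °C to 3-fold compound dilutions (top 30 μM) with 25 μM fluorescein. Donor/acceptor TR-FRET ratio read every 30 min. EC50 and Emax from 4-parameter fits, normalised to the GLP1(7-36) EC100 (top 1 μM) and buffer-only EC0 wells.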

Chain of human GLP1R (P43220 24-463): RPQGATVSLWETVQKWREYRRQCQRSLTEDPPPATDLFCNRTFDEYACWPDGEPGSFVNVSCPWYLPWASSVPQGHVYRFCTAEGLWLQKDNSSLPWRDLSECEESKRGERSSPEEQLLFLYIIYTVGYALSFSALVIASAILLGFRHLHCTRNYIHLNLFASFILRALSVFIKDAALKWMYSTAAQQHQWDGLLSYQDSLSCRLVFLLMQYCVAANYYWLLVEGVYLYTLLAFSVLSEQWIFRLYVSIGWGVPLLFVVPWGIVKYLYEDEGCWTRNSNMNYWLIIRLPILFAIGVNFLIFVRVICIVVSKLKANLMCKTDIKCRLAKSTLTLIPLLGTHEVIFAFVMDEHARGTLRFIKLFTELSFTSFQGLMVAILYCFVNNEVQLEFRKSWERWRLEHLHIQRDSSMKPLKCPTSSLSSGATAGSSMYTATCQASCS

## C[C@]1(c2ccc(Cl)cc2F)Oc2cccc(C3CCN(Cc4ncc(/C=C/C(=O)O)n4C[C@@H]4CCO4)CC3)c2O1 [Compound C-1, (E)-3-(2-((4-((S)-2-(4-chloro-2-fluorophenyl)-2-methylbenzo[d][1,3]dioxol-4-yl)piperidin-1-yl)methyl)-1-(((S)-oxetan-2-yl)methyl)-1H-imidazol-5-yl)acrylic acid]
  EC50: 336 nM
  Emax: 67%

## C[C@]1(c2ccc(Cl)cc2F)Oc2cccc(C3CCN(Cc4nc(/C=C/C(=O)O)cn4C[C@@H]4CCO4)CC3)c2O1 [Compound C-2, (E)-3-(2-((4-((S)-2-(4-chloro-2-fluorophenyl)-2-methylbenzo[d][1,3]dioxol-4-yl)piperidin-1-yl)methyl)-1-(((S)-oxetan-2-yl)methyl)-1H-imidazol-4-yl)acrylic acid]
  EC50: > 30000 nM
  Emax: 5%

## Cc1nc(CN2CCC(c3cccc4c3O[C@@](C)(c3ccc(Cl)cc3F)O4)CC2)n(C[C@@H]2CCO2)c1/C=C/C(=O)O [Compound C-5, (E)-3-(2-((4-((S)-2-(4-chloro-2-fluorophenyl)-2-methylbenzo[d][1,3]dioxol-4-yl)piperidin-1-yl)methyl)-4-methyl-1-(((S)-oxetan-2-yl)methyl)-1H-imidazol-5-yl)acrylic acid]
  EC50: 89 nM
  Emax: 58%

## C[C@]1(c2ccc(Cl)cc2F)Oc2cccc(C3CCN(Cc4nc(C(F)(F)F)c(C(=O)O)n4C[C@@H]4CCO4)CC3)c2O1 [Compound C-7, 2-((4-((S)-2-(4-chloro-2-fluorophenyl)-2-methylbenzo[d][1,3]dioxol-4-yl)piperidin-1-yl)methyl)-1-(((S)-oxetan-2-yl)methyl)-4-(trifluoromethyl)-1H-imidazole-5-carboxylic acid]
  EC50: > 30000 nM
  Emax: 3%
